In US20170073306A1, “POTENT INHIBITORS OF HUMAN CARBONIC ANHYDRASE II AND BOVINE CARBONIC ANHYDRASE II AND THEIR MECHANISM OF ACTION” (priority 2015, published 2017):

Columns and labels:
[1] = target: T1, Human Carbonic Anhydrase-II (human erythrocyte CA-II) (Homo sapiens, UniProt P00918); assay: HCA-II inhibitory activity, 4-nitrophenyl acetate spectrophotometric assay; type: biochemical; conditions: 4-nitrophenyl acetate 0.7 mM, pH 7.4, 25° C., 15 min preincubation; read-out: IC50 ± S.E.M. HCA-II
T1 construct: purified human erythrocyte CA-II; from tissue; host or cells: human erythrocytes
Description: (§1) Nineteen different analogues of benzamide sulfonamides were evaluated for carbonic anhydrase-II inhibition. The rate of catalyzed reaction was monitored by the amount of product formation by using the chromogenic substrate i.e., 4-nitrophenyl acetate.
Hydrolysis of 4-NPA (a colorless compound): yields 4-nitrophenol and […]. The reaction is monitored by quantifying the formation of 4-nitrophenol, a yellow colored compound.
In successive experiments, HEPES-tris was used as a buffer for the reaction at final concentration of 20 mM, with 7.4 pH. The total reaction volume of 200 μL includes, 140 μL of the HEPES-tris, 20 μL of test compound diluted in DMSO (20 μL of DMSO as a control sample), 20 μL of purified human erythrocyte CA-II (0.1 mg/mL) prepared in deionized water and 20 μL of a solution of 4-NPA (0.7 mM diluted in ethanol). Adhesion of enzyme with the plastic-ware was avoided by the addition of bovine serum albumin (1 mg/mL).
The 20 μL of test compound was incubated with enzyme for a period of 15 min. The rate of product formation was monitored with the addition of 20 μL substrate prepared in ethanol at a final concentration of 0.7 mM 4-nitrophenyl acetate at 25° C. for a period of 30 min with regular interval of 1 min.
The assay was performed in triplicates by using 96-well flat bottom plate.
The enzyme inhibitory activities were calculated using the following formula: […]
(§2) Where test is the enzyme activity with sample and control is the enzyme activity without sample. The IC50 of the compounds were calculated by using EZ-Fit Enzyme Kinetic Program (Perrella Scientific Inc. Amhrest, U.S.A).

MTT cytotoxicity assay = type: cell-based; conditions: mouse, 3T3 mouse fibroblast cells, 3T3 cells, 50% growth inhibition, read-out: Cytotoxicity IC50 ± SD
Description: Cytotoxicity studies were performed using a colorimetric assay that measures the reduction of 3-(4,5-dimethythiazol-2-yl)-2,5-diphenyl tetrazolium bromide (MTT) (yellow in color), by mitochondrial enzyme (i.e. succinate dehydrogenase). The MTT enters into the mitochondria of cell, where it is reduced to an insoluble formazan salt (purple in color). The extent of MTT reduction to formazan within cells was measured spectrophotometrically. As reduction of MTT can only occur in metabolically active cells the level of activity is actually a measure of the viability of the cells^22.
Mouse fibroblast cell line 3T3 was cultured in DMEM, supplemented with 5% of FBS, 100 IU/ml of penicillin and 100 μg/ml of streptomycin, and kept at 37° C. in 5% CO2 incubator. For the preparation of cell culture 100 μL/well of cell solution (5×10^4 cells/ml) was added into 96-well plate. The plate was incubated for overnight, and fresh medium was added after the removal of old medium. The test compounds were also added in different concentrations into the plate and plate was again incubated for 48 hrs. After the completion of this incubation period 200 μL MTT (0.5 mg/ml) was added and plate was again incubated for 4 hrs, after this final incubation 100 μL of DMSO was added to each well. The level of MTT reduction to formazan was evaluated by change in absorbance at 540 nm using a micro plate reader (Spectra Max plus, Molecular Devices, CA, USA).

[2] = target: T2, Bovine Carbonic Anhydrase-II (bovine erythrocyte CA-II) (Bos taurus, UniProt P00921); assay: Bovine carbonic anhydrase-II inhibition, 4-nitrophenyl acetate spectrophotometric assay; type: biochemical; conditions: 4-nitrophenyl acetate 0.7 mM, pH 7.4, 15 min preincubation; read-out: IC50 ± S.E.M. BCA-II
T2 construct: pure bovine erythrocyte CA-II; from tissue; host or cells: bovine erythrocytes
T2 sequence (P00921 whole entry): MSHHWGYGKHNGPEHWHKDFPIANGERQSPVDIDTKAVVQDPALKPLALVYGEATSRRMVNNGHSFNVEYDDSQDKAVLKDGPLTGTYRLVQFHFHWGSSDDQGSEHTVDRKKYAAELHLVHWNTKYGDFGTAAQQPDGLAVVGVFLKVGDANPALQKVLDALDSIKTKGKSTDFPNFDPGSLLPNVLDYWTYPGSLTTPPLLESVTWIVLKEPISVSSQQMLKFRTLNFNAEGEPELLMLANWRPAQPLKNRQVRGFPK
Description: as §1
4-Nitrophenyl acetate (4-NPA) is a colorless compound which is used as a substrate in carbonic anhydrase inhibition assay. The reaction involves the hydrolysis of 4-nitrophenyl acetate into […] and 4-nitrophenol a yellow colored compound. During this experiment, HEPES-tris buffer was used at 20 mM concentration with pH 7.4.
After 15 min of incubation of the enzyme with the test compound, the substrate was added to initiate the reaction. The reaction was carried out in triplicate with different concentrations of test compounds was used.
In this assay protocol, the reaction was performed by using a 96-well flat bottom plate.
The amount of product formation was measured at 400 nm for 30 min with 1 min interval, multiplate reader SPECTRA max 340 (Molecular Devices, CA, USA) was used to monitor the product formation.
The enzyme inhibitory activities were calculated using the following formula:
% Inhibition=100−(O.D of test/O.D of control)*100
as §2

[3] = target: T3, Bovine Carbonic Anhydrase-II (Bos taurus, UniProt P00921); assay: Kinetics studies (Lineweaver-Burk, Dixon plots) against Bovine Carbonic Anhydrase-II; type: biochemical; parameters: Vmax app: unit not given here
T3 construct: pure bovine erythrocyte CA-II; from tissue; host or cells: bovine erythrocytes
T3 sequence (P00921 whole entry): as above
Description: FIG. 2B depicts the double reciprocal plot for Ki determination which is between Slope Vs Inhibitor Conc.
FIG. 3B depicts the double reciprocal plot for Ki determination which is between Slope Vs Inhibitor Conc.
Kinetics studies were performed for each analogue. […] The Grafit version 7.0 was used for the construction of Lineveawer-Burk plots and their secondary replots.

IC50 [1]: 100 ± 40 nM | IC50 [2]: 60 ± 1 nM | Vmax app ([3]; apparent Vmax with inhibitor (0.2-0.00625 μM)): 12.33 | Vmax ([3]; enzyme Vmax without inhibitor): 79.36 (μM/L/min)^−1 | Ki ([3]; from secondary replots / Dixon plot, read-out: Ki): 46 nM
Structure (SMILES): NS(=O)(=O)c1ccc(NC(=S)NC(=O)c2ccc(Cl)cc2Cl)cc1 [Compound 19, 2,4-Dichloro-N-(4-sulfamoylphenylcarbamothioyl)benzamide]
IC50 at 48 h (MTT cytotoxicity assay): > 30000 nM
